Assay [1] is filed under the species Bos taurus. Briefly: (§1) Antiosteoarthritis activity in bovine articular chondrocytes assessed as induction of aggrecan mRNA expression at 0.1 uM after 5 days by Northern blot analysis relative to control. The assay is classed as functional.
Assay [2] is filed under the species Bos taurus. In words: (§2) Antiosteoarthritis activity in bovine articular chondrocytes assessed as induction of aggrecan mRNA expression at 1 uM after 5 days by Northern blot analysis relative to control. The assay is classed as functional.
The species named for assay [3] is Bos taurus. In words: (§3) Antiosteoarthritis activity in bovine articular chondrocytes assessed as induction of aggrecan mRNA expression at 10 uM after 5 days by Northern blot analysis relative to control. The assay is classed as functional.
The species entered for assay [4] is Bos taurus. Briefly: (§4) Antiosteoarthritis activity in bovine articular chondrocytes assessed as inhibition of IL1-induced reduction of aggrecan mRNA expression at 0.1 uM after 5 days by Northern blot analysis relative to control. In kind it is functional.
Assay [5] is filed under the species Bos taurus. In words: (§5) Antiosteoarthritis activity in bovine articular chondrocytes assessed as inhibition of IL1-induced reduction of aggrecan mRNA expression at 1 uM after 5 days by Northern blot analysis relative to control. In kind it is functional.
The species entered for assay [6] is Bos taurus. Briefly: (§6) Antiosteoarthritis activity in bovine articular chondrocytes assessed as inhibition of IL1-induced reduction of aggrecan mRNA expression at 10 uM after 5 days by Northern blot analysis relative to control. The assay is classed as functional.
Assay [7] is filed under the species Bos taurus. Briefly: Antiosteoarthritis activity in bovine articular chondrocytes assessed as restoration of IL-1-inuced inhibition of proteoglycans biosynthesis at 0.1 to 10 uM. The assay is classed as functional, cell-based.
Assay [8] is described as follows: (§7) Antiosteoarthritis activity in bovine articular chondrocytes assessed as induction of aggrecan mRNA expression at 10 uM after 5 days by RT-PCR analysis relative to control. The assay is classed as functional, Bos taurus.
The species named for assay [9] is Bos taurus. The description is as §7. The assay is classed as functional.
Assay [10] is described as follows: Antiosteoarthritis activity in bovine articular chondrocytes assessed as inhibition of IL1-induced reduction of aggrecan mRNA expression at 0.1 uM after 5 days by RT-PCR analysis relative to control. As to conditions: Bos taurus, 120 h. The assay is classed as functional.
Assay [11] is described as follows: Antiosteoarthritis activity in bovine articular chondrocytes assessed as inhibition of IL1-induced reduction of aggrecan mRNA expression at 1 uM after 5 days by RT-PCR analysis relative to control. In kind it is functional. As to conditions: Bos taurus, 120 h.
For assay [12], the species on record is Bos taurus. Briefly: Induction of TGF receptor type 1 mRNA expression in bovine articular chondrocytes at 10 uM after 5 days by RT-PCR analysis. In kind it is functional, cell-based.
The species entered for assay [13] is Bos taurus. In words: Induction of TGF receptor type 1 mRNA expression in bovine articular chondrocytes at 1 uM after 5 days by RT-PCR analysis. The assay is classed as functional, cell-based.
The species named for assay [14] is Bos taurus. Briefly: Induction of TGF receptor type 1 mRNA expression in bovine articular chondrocytes at 10 uM after 5 days by RT-PCR analysis in presence of IL-1. In kind it is functional, cell-based.
The species named for assay [15] is Bos taurus. Briefly: Induction of TGF receptor type 1 mRNA expression in bovine articular chondrocytes at 1 uM after 5 days by RT-PCR analysis in presence of IL-1. In kind it is functional, cell-based.
A short description of assay [16]: Induction of TGF receptor type 2 mRNA expression in bovine articular chondrocytes at 10 uM after 5 days by RT-PCR analysis relative to control. In kind it is functional, Bos taurus.
Assay [17] is described as follows: Induction of TGF receptor type 2 mRNA expression in bovine articular chondrocytes at 1 uM after 5 days by RT-PCR analysis relative to control. In kind it is functional, Bos taurus.
A short description of assay [18]: Induction of TGF-beta2 mRNA expression in bovine articular chondrocytes at 1 uM after 5 days by RT-PCR analysis relative to control. In kind it is functional, Bos taurus.
Assay [19] can be described thus: Induction of TGF-beta2 mRNA expression in bovine articular chondrocytes at 10 uM after 5 days by RT-PCR analysis relative to control. The assay is classed as functional, Bos taurus.
For assay [20], the species on record is Bos taurus. In words: Induction of TGF-beta1 mRNA expression in bovine articular chondrocytes at 1 uM after 5 days by RT-PCR analysis in presence of IL-1. The assay is classed as functional, cell-based.
The species named for assay [21] is Bos taurus. In words: Induction of TGF-beta1 mRNA expression in bovine articular chondrocytes at 1 uM after 5 days by RT-PCR analysis. In kind it is functional, cell-based.
For assay [22], the species on record is Bos taurus. In words: Induction of TGF-beta1 mRNA expression in bovine articular chondrocytes at 10 uM after 5 days by RT-PCR analysis in presence of IL-1. In kind it is functional, cell-based.
The species entered for assay [23] is Bos taurus. In words: Induction of TGF-beta1 mRNA expression in bovine articular chondrocytes at 10 uM after 5 days by RT-PCR analysis. The assay is classed as functional, cell-based.
Assay [24] can be described thus: as §1. In kind it is functional, Bos taurus.
Assay [25] can be described thus: as §2. In kind it is functional, Bos taurus.
Assay [26] in a line: as §6. In kind it is functional, Bos taurus. Further details: scale not given: the % may be the effect or the level left.
Assay [27] in a line: as §3. The assay is classed as functional. As to conditions: Bos taurus, 120 h; values are per cent of control.
Assay [28] can be described thus: as §4. The assay is classed as functional, Bos taurus. Details: scale not given: the % may be the effect or the level left.
Assay [29] can be described thus: as §5. Details: scale not given: the % may be the effect or the level left. The assay is classed as functional, Bos taurus.

Usually inhibition stands for the drop in the measured response relative to a control, in per cent.

Calls of active or inactive are those of the source. The calls are words filed in the database; no cut-off is given here.

Turning to `CC[N+](C)(C)CCCNC(=O)C1=C(O)c2ccccc2S(=O)(=O)N1C`, the outcome in the assay listed under Bos taurus [1], in the assay listed under Bos taurus [2], in the assay listed under Bos taurus [3], in the assay listed under Bos taurus [4], in the assay listed under Bos taurus [5] and in the assay listed under Bos taurus [6] was inactive.

`CN1C(C(=O)NCCC[N+](C)(C)C)=C(O)c2ccccc2S1(=O)=O.[I-]`: the outcome in the assay filed under Bos taurus [7] and in the assay listed under Bos taurus [9] was Active. Also, the Activity was 62% in assay [8]; 18% in assay [16]; 45% in assay [17]; 30% in [18]; 37% in assay [19]. Besides, the inhibition at 0.1 µM in [10] stood at 150%. Besides, in assay [11], the inhibition at 1 µM turned out to be 63%. Also, the result in the assay listed under Bos taurus [12], in the assay listed under Bos taurus [13], in the assay filed under Bos taurus [14], in the assay filed under Bos taurus [15], in the assay listed under Bos taurus [20] and in the assay listed under Bos taurus [21] was inactive. In addition, the result in the assay listed under Bos taurus [22] and in the assay listed under Bos taurus [23] was inactive.

For the molecule `CN1C(C(=O)Nc2ccccn2)=C(O)c2ccccc2S1(=O)=O` [PIROXICAM], the Activity was 23% in [24] and 37% in [25]. For the same molecule, the result in the assay listed under Bos taurus [4], in the assay listed under Bos taurus [5] and in the assay listed under Bos taurus [6] was Active.

As for `CN(C)CCCNC(=O)C1=C(O)c2ccccc2S(=O)(=O)N1C` [PROPOXICAM], the Activity is given as 25% in assay [24]; 25% in assay [25]; 65% in assay [26]; 31% in [18]; 22% in [19]. Further, the outcome in the assay filed under Bos taurus [4], in the assay filed under Bos taurus [5] and in the assay filed under Bos taurus [6] was Active. The result in the assay filed under Bos taurus [12], in the assay filed under Bos taurus [13], in the assay filed under Bos taurus [14], in the assay listed under Bos taurus [15], in the assay listed under Bos taurus [20] and in the assay listed under Bos taurus [21] was inactive. Besides, the outcome in the assay filed under Bos taurus [22] and in the assay filed under Bos taurus [23] was inactive.

Regarding `CN1C(C(=O)NCCC[n+]2ccccc2)=C(O)c2ccccc2S1(=O)=O`, the result in the assay filed under Bos taurus [1], in the assay filed under Bos taurus [2], in the assay filed under Bos taurus [3], in the assay listed under Bos taurus [4], in the assay filed under Bos taurus [5] and in the assay filed under Bos taurus [6] was inactive.

Consider `CC[N+](C)(CC)CCCNC(=O)C1=C(O)c2ccccc2S(=O)(=O)N1C.[I-]`, for which the Activity is 31% in [24], 216% in [28], 130% in assay [29] and 31% in assay [8]. The response, % of control at 10 µM in assay [27] was found to be 216%. In addition, the result in the assay filed under Bos taurus [4], in the assay listed under Bos taurus [5], in the assay filed under Bos taurus [6] and in the assay listed under Bos taurus [7] was Active. Moreover, in [11], the inhibition at 1 µM was 130%.

With `CN1C(C(=O)NCCCC[N+](C)(C)C)=C(O)c2ccccc2S1(=O)=O`, the result in the assay listed under Bos taurus [1], in the assay filed under Bos taurus [2], in the assay listed under Bos taurus [3], in the assay filed under Bos taurus [4], in the assay filed under Bos taurus [5] and in the assay filed under Bos taurus [6] was inactive.

As to `CC[N+](CC)(CC)CCCNC(=O)C1=C(O)c2ccccc2S(=O)(=O)N1C`, the outcome in the assay filed under Bos taurus [1], in the assay listed under Bos taurus [2], in the assay listed under Bos taurus [3], in the assay filed under Bos taurus [4], in the assay listed under Bos taurus [5] and in the assay listed under Bos taurus [6] was inactive.

The record behind these values is ChEMBL document CHEMBL1154344, “New quaternary ammonium oxicam derivatives: synthesis and in vitro antiosteoarthritis evaluation” (2010).
